This passage reports fold change (FC), Kd and Activity results from ChEMBL document CHEMBL4342492, “Optimization of Small Molecules That Sensitize HIV-1 Infected Cells to Antibody-Dependent Cellular Cytotoxicity” (ACS Med Chem Lett, 2020).

Test [1] deals with Envelope glycoprotein gp160 (Human immunodeficiency virus 1) (UniProt Q6QLK5). As to the kind of experiment: Binding affinity to HIV1JRFL envelope glycoprotein expressed in human HOS cells assessed as fold change in binding to CoRBS 17b incubated for 1 hrs by cell based ELISA relative to BNM-III-170. The note with it: JRFL.
Test [2] addresses Envelope glycoprotein gp160 (Human immunodeficiency virus 1, UniProt Q6QLK5). As to the kind of experiment: Binding affinity to HIV1 YU-2 gp120 by isothermal titration calorimetric analysis.
Test [3] has as its system Human immunodeficiency virus 1. As to the kind of experiment: Induction of sensitization to HIV-1CH58TF infected in CD4-positive T cells assessed as […] cellular cytotoxicity at 50 uM incubated for 4 to 6 hrs by AquaVivid/eFluor670 staining based by flow cytometric analysis. It counts as functional, organism-based.

Structures are written as SMILES. The source made the active and inactive calls. The calls are words filed in the database; no cut-off is given here.

Chain of Envelope glycoprotein gp160 (Human immunodeficiency virus 1) (Q6QLK5 1-814): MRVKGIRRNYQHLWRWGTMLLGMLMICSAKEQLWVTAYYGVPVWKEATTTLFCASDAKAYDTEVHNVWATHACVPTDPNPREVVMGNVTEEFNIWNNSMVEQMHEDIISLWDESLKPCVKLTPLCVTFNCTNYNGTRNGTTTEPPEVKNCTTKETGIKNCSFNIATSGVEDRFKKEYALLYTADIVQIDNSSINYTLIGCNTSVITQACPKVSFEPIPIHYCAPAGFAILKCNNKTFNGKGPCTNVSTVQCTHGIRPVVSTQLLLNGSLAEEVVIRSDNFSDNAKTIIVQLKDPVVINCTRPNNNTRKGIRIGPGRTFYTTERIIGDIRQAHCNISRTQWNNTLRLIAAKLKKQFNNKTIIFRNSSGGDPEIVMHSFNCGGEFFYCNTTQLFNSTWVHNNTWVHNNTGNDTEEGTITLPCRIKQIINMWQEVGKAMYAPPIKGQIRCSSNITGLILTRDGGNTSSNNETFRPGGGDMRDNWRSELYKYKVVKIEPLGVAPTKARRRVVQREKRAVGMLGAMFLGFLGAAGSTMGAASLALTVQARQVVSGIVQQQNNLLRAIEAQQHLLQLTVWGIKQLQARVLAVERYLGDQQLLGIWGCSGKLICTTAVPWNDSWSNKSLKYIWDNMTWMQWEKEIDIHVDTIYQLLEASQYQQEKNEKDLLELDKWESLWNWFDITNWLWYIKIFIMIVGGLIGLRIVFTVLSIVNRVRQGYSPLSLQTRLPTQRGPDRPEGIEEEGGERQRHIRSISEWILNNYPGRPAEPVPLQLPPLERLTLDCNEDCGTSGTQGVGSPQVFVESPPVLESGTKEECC
Chain of Envelope glycoprotein gp160 (Q6QLK5 whole entry): as the sequence (Q6QLK5 1-814) above

On to `CC(C)COC(=O)N1CCC[C@H](C(=O)Nc2ccc(Cl)c(F)c2)C1`, for which the fold change (FC) in test [1] was determined as 0.62.
Still for that read-out and setting: under `CCCOC(=O)N1CCC[C@H](C(=O)Nc2ccc(Cl)c(F)c2)C1` stands 0.51.
Regarding `CS(=O)(=O)N1CCC[C@H](C(=O)Nc2ccc(Cl)cc2)C1`, the fold change (FC) in test [1] amounted to 0.31. Moreover, the equilibrium dissociation constant (Kd) in test [2] is above 10 µM.
On to `O=C(Nc1ccc(Cl)c(F)c1)[C@H]1CCCOC1`, for which the fold change (FC) in test [1] worked out at 0.58.
`CS(=O)(=O)N1CCCC(NC(=O)c2ccc(Cl)c(F)c2)C1` (racemic): in test [1], the fold change (FC) turned out to be 0.08.
`CS(=O)(=O)N1CCC[C@H](C(=O)Nc2ccc(Br)cc2)C1`: the fold change (FC) in test [1] stood at 0.36.
With `CCOC(=O)N1CCC[C@H](C(=O)Nc2ccc(Cl)c(F)c2)C1`, in test [1], the fold change (FC) came to 0.53. Also, in test [2], binding was characterised by a dissociation constant (Kd) of 0.77 µM. In addition, in test [3], the outcome was Active.
`CS(=O)(=O)N1CCC[C@@H](C(=O)Nc2ccc(Cl)cc2)C1`: the fold change (FC) in test [1] is 0.08.
On to `CS(=O)(=O)N1CC(C(=O)Nc2ccc(Cl)c(F)c2)Cc2ccccc21` (racemic), for which, in test [1], the fold change (FC) was determined as 0.24.
With `CS(=O)(=O)N1CCC(C(=O)Nc2ccc(Cl)c(F)c2)CC1`, in test [1], the fold change (FC) is 0.21.
In the case of `CCS(=O)(=O)N1CCC[C@H](C(=O)Nc2ccc(Cl)c(F)c2)C1`, in test [1], the fold change (FC) worked out at 0.35.
Regarding `NCCCNC(=O)N1CCC[C@H](C(=O)Nc2ccc(Cl)c(F)c2)C1`, the fold change (FC) in test [1] came to 0.25.
Regarding `CS(=O)(=O)N1CCC(C(=O)Nc2ccc(Cl)c(F)c2)C1` (racemic), the fold change (FC) in test [1] worked out at 0.36.
Same read-out and setting: next, `CS(=O)(=O)N1CCNC(C(=O)Nc2ccc(Cl)c(F)c2)C1` (racemic): 0.1; `CCCNC(=N)N1CCC[C@H](C(=O)Nc2ccc(Cl)c(F)c2)C1`: 0.85.
Turning to `CS(=O)(=O)N1CCOC(C(=O)Nc2ccc(Cl)c(F)c2)C1` (racemic), the fold change (FC) in test [1] turned out to be 0.28.
For the compound `CCCNC(=O)N1CCC[C@H](C(=O)Nc2ccc(Cl)c(F)c2)C1`, the fold change (FC) in test [1] was 0.55. Also, in test [3], the outcome was Active.
Turning to `CS(=O)(=O)N1CCC[C@H](C(=O)Oc2ccc(Cl)c(F)c2)C1`, in test [1], the fold change (FC) came out at 0.07.
The same measure, in the same setting: next, `O=C(Nc1ccc(Cl)c(F)c1)C1CCCOC1` (racemic): 0.48.
In the case of `O=C(Nc1ccc(Cl)c(F)c1)[C@H]1CCCN(S(=O)(=O)c2ccccc2)C1`, the fold change (FC) in test [1] stood at 0.45.
`NCCOC(=O)N1C[C@H](N)C[C@H](C(=O)Nc2ccc(Cl)c(F)c2)C1`: the fold change (FC) in test [1] turned out to be 0.07.
With `O=C(Nc1ccc(Cl)c(F)c1)[C@@H]1CCCOC1`, the fold change (FC) in test [1] is 0.28.
Take `CCCNC(=O)N1C[C@H](N)C[C@H](C(=O)Nc2ccc(Cl)c(F)c2)C1`: in test [1], the fold change (FC) amounted to 0.11.
Regarding `NCCCNC(=O)N1C[C@H](N)C[C@H](C(=O)Nc2ccc(Cl)c(F)c2)C1`, the fold change (FC) in test [1] was 0.06.
Consider `COC(=O)N1CCC[C@H](C(=O)Nc2ccc(Cl)c(F)c2)C1`, for which the fold change (FC) in test [1] came to 0.5. The dissociation constant Kd in test [2] was 1.8 µM. In addition, the result in test [3] was Active.
For `CS(=O)(=O)N1CCC[C@H](C(=O)Nc2ccc(Cl)c(F)c2)C1`, the fold change (FC) in test [1] came out at 0.58. Besides, the dissociation constant Kd in test [2] was found to be 2.8 µM. The outcome in test [3] was Active.
On to `NCCNC(=O)N1C[C@H](N)C[C@H](C(=O)Nc2ccc(Cl)c(F)c2)C1`, for which, in test [1], the fold change (FC) was found to be 0.06.
On to `NCCNC(=O)N1CCC[C@H](C(=O)Nc2ccc(Cl)c(F)c2)C1`, for which, in test [1], the fold change (FC) is 0.58. Besides, the result in test [3] was Active.
For `CCS(=O)(=O)N1CCCC(C(=O)Nc2ccc(Cl)c(F)c2)C1` (racemic), in test [1], the fold change (FC) worked out at 0.42.
